Measured values published in patent publication US8835420B2, “Azaindole derivatives” (Takeda Pharmaceutical Company Limited, priority 2012, dated 2014).

What follows are compounds tested against T1, PI3Kδ (recombinant GST-tagged PIK3CD co-expressed with PIK3R1, p85α) (Homo sapiens, UniProt O00329) (assay: PI3Kδ inhibition, modified PIK3CD Adapta TR-FRET kinase assay). Settings: 2 μM ATP, 50 μM PIP2, 1 hour at room temperature, pIC50 = -log(IC50 in M).
T1 construct: The protein is full length and co-expressed with untagged PIK3R1; GST; purchased Invitrogen PV5274
T1 sequence (O00329 whole entry): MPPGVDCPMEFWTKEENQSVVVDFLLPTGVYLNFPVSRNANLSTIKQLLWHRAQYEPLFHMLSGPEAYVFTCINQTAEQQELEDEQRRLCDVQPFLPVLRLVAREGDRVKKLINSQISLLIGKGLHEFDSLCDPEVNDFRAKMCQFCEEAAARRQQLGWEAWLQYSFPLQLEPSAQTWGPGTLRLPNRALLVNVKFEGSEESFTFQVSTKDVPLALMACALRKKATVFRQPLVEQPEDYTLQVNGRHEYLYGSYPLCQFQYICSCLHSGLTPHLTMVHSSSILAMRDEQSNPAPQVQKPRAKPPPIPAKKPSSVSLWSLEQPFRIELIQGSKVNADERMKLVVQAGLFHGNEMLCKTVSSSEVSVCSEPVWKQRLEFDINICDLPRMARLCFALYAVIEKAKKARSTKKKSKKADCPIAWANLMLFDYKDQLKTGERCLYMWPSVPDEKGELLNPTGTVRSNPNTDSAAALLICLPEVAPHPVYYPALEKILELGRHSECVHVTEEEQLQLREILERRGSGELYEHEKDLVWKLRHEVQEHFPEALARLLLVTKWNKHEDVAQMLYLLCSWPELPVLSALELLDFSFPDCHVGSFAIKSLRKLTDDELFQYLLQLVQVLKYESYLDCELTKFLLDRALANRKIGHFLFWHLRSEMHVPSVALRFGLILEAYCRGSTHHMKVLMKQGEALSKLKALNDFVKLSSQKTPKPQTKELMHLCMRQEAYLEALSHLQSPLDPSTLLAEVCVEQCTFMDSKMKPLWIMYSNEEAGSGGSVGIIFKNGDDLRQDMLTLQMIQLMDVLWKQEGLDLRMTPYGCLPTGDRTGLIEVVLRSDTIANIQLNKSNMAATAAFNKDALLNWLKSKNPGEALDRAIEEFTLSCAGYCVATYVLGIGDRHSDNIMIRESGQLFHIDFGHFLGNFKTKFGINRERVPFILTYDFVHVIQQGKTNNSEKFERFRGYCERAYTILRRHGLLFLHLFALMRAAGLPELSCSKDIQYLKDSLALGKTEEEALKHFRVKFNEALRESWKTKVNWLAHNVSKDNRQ
T1 sequence (P27986 whole entry partner): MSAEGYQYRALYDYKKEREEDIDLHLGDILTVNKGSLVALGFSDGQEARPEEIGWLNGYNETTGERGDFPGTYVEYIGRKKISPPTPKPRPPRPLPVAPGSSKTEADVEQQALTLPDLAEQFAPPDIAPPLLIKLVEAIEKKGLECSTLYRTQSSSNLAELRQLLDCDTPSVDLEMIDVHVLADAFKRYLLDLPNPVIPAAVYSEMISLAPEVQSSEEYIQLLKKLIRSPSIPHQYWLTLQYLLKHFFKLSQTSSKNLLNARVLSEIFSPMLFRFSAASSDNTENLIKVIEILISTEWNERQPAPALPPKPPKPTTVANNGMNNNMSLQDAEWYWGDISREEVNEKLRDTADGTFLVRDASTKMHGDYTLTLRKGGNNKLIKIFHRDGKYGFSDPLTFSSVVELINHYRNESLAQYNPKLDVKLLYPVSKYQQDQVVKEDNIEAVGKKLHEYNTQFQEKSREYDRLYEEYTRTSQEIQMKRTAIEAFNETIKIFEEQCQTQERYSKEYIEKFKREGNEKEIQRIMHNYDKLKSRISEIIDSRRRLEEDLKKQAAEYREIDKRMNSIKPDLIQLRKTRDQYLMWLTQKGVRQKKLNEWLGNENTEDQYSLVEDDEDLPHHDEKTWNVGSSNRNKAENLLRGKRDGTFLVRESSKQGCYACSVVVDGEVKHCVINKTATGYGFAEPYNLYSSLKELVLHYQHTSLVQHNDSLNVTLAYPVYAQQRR
Assay type: biochemical
Method: The activity of compounds as PI3Kδ inhibitors may be determined by a variety of methods, including in vitro and in vivo methods. The following in vitro assay measures a test compound's ability to inhibit PI3Kδ-mediated phosphorylation of PIP2 and ATP.
Recombinant GST-tagged PIK3CD is purchased from Invitrogen (Part Number: PV5274). The protein is full length and co-expressed with untagged PIK3R1, phosphoinositide-3-kinase regulatory subunit 1 (p85α). The protein is stored at −20° C. in 50 mM TRIS (pH 7.5), 150 mM NaCl, 0.5 mM EDTA, 0.02% Triton® X-100, 2 mM DTT, and 50% glycerol.
A modified PIK3CD Adapta® assay (Invitrogen, Carlsbad, Calif.) is used to measure PI3Kδ inhibition of the example compounds. The assay has two phases. In the first phase, kinase reaction components, which include the enzyme (PIK3CD), substrates (PIP2, ATP), test compound (inhibitor), and assay buffer are added to each well, and the reaction is allowed to incubate for a pre-determined period of time. After reaction, a detection solution composed of a Eu (europium)-labeled anti-ADP antibody, Alexa Fluor® 647-labeled ADP tracer, and EDTA (to stop the kinase reaction) is added to each assay well. In this second phase, ADP formed by the kinase reaction displaces the Alexa Fluor® 647-labeled ADP tracer from the antibody, resulting in a decrease in time-resolved fluorescence resonance energy transfer (TR-FRET) signal. In the presence of the inhibitor, the amount of ADP formed by the kinase reaction is reduced, and the resulting intact antibody-tracer interaction maintains a high TR-FRET signal.
The assay uses black Greiner® 384-well plates (784076). The reaction buffer contains 50 mM Hepes (pH 7.5), 3 mM MgCl2, 1 mM EGTA, 100 mM NaCl, 0.03% CHAPS; 2 mM DTT is added fresh prior to each experiment. Enzyme (4 μL, estimated 1.5 nM in buffer) is first added to the wells of the plate. Next, test compounds (2 μL) from a source plate (5% dilution plate) are introduced into the wells. The final DMSO concentration in each assay well is 1%. The dilution plate contains 5% DMSO in the bottom half of columns 23 and 24, which serve as negative (non-inhibited) controls; the top half contains a known inhibitor concentration (positive control) that gives >98% inhibition of the kinase reaction. Other wells contain test compounds serially diluted across the plate 11 times for a total of 12 data points. The kinase reactions are carried out at room temperature and are initiated by the addition of 4 μL of solution containing 2 μM ATP and 50 μM PIP2. Each reaction is stopped after 1 hour±10 minutes via addition of 10 μL stop solution, which contains a final assay concentration of 3 nM Alexa Fluor® 647-labeled ADP tracer, 2 nM Eu-anti-ADP Antibody, and 10 mM EDTA. After allowing the solutions to equilibrate for 30±10 minutes, a PHERAstar plate reader is used to excite the Eu donor (at 337 nm) and to detect emission from the Alexa Fluor® 647 at 665 nm. This emission signal is referenced or “ratioed” to the emission from Eu at 620 nm. The emission ratio (665 nm/620 nm) from each well is collected and converted to percent conversion using a standard curve for the assay conditions: % conversion=B*(C+A−emission ratio)/(emission ratio−C), where “A” and “C” are the maximum and minimum values of the emission ratio obtained from the standard curve of emission ratio vs. % conversion (ATP-ADP); “B” is the emission ratio corresponding to the % conversion at the EC50 value for the ADP Tracer—Eu anti-ADP antibody complex. The percent inhibition for a given inhibitor concentration is computed from % conversion for the reaction and for the positive and negative controls. Corresponding IC50 values are calculated by non-linear curve fitting of the compound concentrations and values of percent inhibition to the standard IC50 equation and are reported as pIC50, i.e., −log(IC50), where IC50 is molar concentration at 50% inhibition.

| Compound | IC50 [nM] |
| --- | --- |
| C[C@H](Nc1nc(N)nc(N)c1C#N)c1nc2ccn(C)c2cc1C1CCOCC1 [Example 26, (S)-2,4-Diamino-6-((1-(1-methyl-6-(tetrahydro-2H-pyran-4-yl)-1H-pyrrolo[3,2-b]pyridin-5-yl)ethyl)amino)pyrimidine-5-carbonitrile] | < 2 |
| C[C@H](Nc1nc(N)nc2[nH]cnc12)c1nc2ccn(C)c2cc1N1CCOCC1 [Example 27, (S)—N^6-(1-(1-Methyl-6-morpholino-1H-pyrrolo[3,2-b]pyridin-5-yl)ethyl)-9H-purine-2,6-diamine] | 10 |
| C[C@H](Nc1nc(N)nc(N)c1Cl)c1nc2ccn(C)c2cc1N1CCOCC1 [Example 28, (S)-5-Chloro-N^4-(1-(1-methyl-6-morpholino-1H-pyrrolo[3,2-b]pyridin-5-yl)ethyl)pyrimidine-2,4,6-triamine] | 126 |
| C[C@H](Nc1nc(N)nc(N)c1C#N)c1nc2ccn(C)c2cc1N1CCOCC1 [Example 29, (S)-2,4-Diamino-6-((1-(1-methyl-6-morpholino-1H-pyrrolo[3,2-b]pyridin-5-yl)ethyl)amino)pyrimidine-5-carbonitrile] | < 1.26 |
| Cc1noc(C)c1-c1cc2c(ccn2C)nc1[C@H](C)Nc1nc(N)nc(N)c1C#N [Example 30, 2,4-Diamino-6-(((1S)-1-(6-(3,5-dimethylisoxazol-4-yl)-1-methyl-1H-pyrrolo[3,2-b]pyridin-5-yl)ethyl)amino)pyrimidine-5-carbonitrile] | < 1 |
| Cc1nc(N)nc(N[C@@H](C)c2nc3ccn(C)c3cc2-c2c(C)noc2C)c1C#N [Example 31, 2-Amino-4-(((1S)-1-(6-(3,5-dimethylisoxazol-4-yl)-1-methyl-1H-pyrrolo[3,2-b]pyridin-5-yl)ethyl)amino)-6-methylpyrimidine-5-carbonitrile] | 3.98 |
| C[C@H](Nc1nc(N)nc(N)c1C#N)c1nc2ccn(C)c2cc1-c1ccnn1C(F)F [Example 32, (S)-2,4-Diamino-6-((1-(6-(1-(difluoromethyl)-1H-pyrazol-5-yl)-1-methyl-1H-pyrrolo[3,2-b]pyridin-5-yl)ethyl)amino)pyrimidine-5-carbonitrile] | 1.58 |
| C[C@H](Nc1nc(N)nc(N)c1Cl)c1nc2ccn(C)c2cc1-c1ccnn1C [Example 33, (S)-5-Chloro-N^4-(1-(1-methyl-6-(1-methyl-1H-pyrazol-5-yl)-1H-pyrrolo[3,2-b]pyridin-5-yl)ethyl)pyrimidine-2,4,6-triamine] | 31.6 |
| C[C@H](Nc1nc(N)nc2[nH]cnc12)c1nc2ccn(C)c2cc1-c1ccccn1 [Example 34, (S)—N^6-(1-(1-Methyl-6-(pyridin-2-yl)-1H-pyrrolo[3,2-b]pyridin-5-yl)ethyl)-9H-purine-2,6-diamine] | 5.01 |
| C[C@H](Nc1nc(N)nc(N)c1C#N)c1nc2ccn(C)c2cc1-c1ccnn1C1CC1 [Example 35, (S)-2,4-Diamino-6-((1-(6-(1-cyclopropyl-1H-pyrazol-5-yl)-1-methyl-1H-pyrrolo[3,2-b]pyridin-5-yl)ethyl)amino)pyrimidine-5-carbonitrile] | 2.51 |
| C[C@H](Nc1nc(N)nc2[nH]cnc12)c1nc2ccn(C)c2cc1-c1ccnn1C1CC1 [Example 36, (S)-N^6-(1-(6-(1-Cyclopropyl-1H-pyrazol-5-yl)-1-methyl-1H-pyrrolo[3,2-b]pyridin-5-yl)ethyl)-9H-purine-2,6-diamine] | 10 |
| C[C@H](Nc1nc(N)nc2[nH]cnc12)c1nc2ccn(C)c2cc1-c1ccnn1C(F)F [Example 37, (S)-N^6-(1-(6-(1-(Difluoromethyl)-1H-pyrazol-5-yl)-1-methyl-1H-pyrrolo[3,2-b]pyridin-5-yl)ethyl)-9H-purine-2,6-diamine] | 10 |
| CC(Nc1nc(N)nc(N)c1Cl)c1nc2ccn(C)c2cc1N1CC(F)(F)C1 (stereo not shown) [Example 38, 5-Chloro-N^4-(1-(6-(3,3-difluoroazetidin-1-yl)-1-methyl-1H-pyrrolo[3,2-b]pyridin-5-yl)ethyl)pyrimidine-2,4,6-triamine] | 158 |
| CC(Nc1nc(N)nc(N)c1C#N)c1nc2ccn(C)c2cc1N1CC(O)C1 (stereo not shown) [Example 39, 2,4-Diamino-6-((1-(6-(3-hydroxyazetidin-1-yl)-1-methyl-1H-pyrrolo[3,2-b]pyridin-5-yl)ethyl)amino)pyrimidine-5-carbonitrile] | < 1.58 |

Other lines, results leading:

| IC50 [nM] | Compound |
| --- | --- |
| 79.4 | CC(Nc1nc(N)nc(N)c1Cl)c1nc2ccn(C)c2cc1N1CC(O)C1 (stereo not shown) [Example 40, 1-(5-(1-((2,6-Diamino-5-chloropyrimidin-4-yl)amino)ethyl)-1-methyl-1H-pyrrolo[3,2-b]pyridin-6-yl)azetidin-3-ol] |
| < 1.58 | COC1CN(c2cc3c(ccn3C)nc2[C@H](C)Nc2nc(N)nc(N)c2C#N)C1 [Example 41, (S)-2,4-Diamino-6-((1-(6-(3-methoxyazetidin-1-yl)-1-methyl-1H-pyrrolo[3,2-b]pyridin-5-yl)ethyl)amino)pyrimidine-5-carbonitrile] |
| 1000 | C[C@@H](Nc1nc(N)nc(N)c1C#N)c1nc2ccn(C)c2cc1N1CC(F)(F)C1 [Example 43, (R)-2,4-Diamino-6-((1-(6-(3,3-difluoroazetidin-1-yl)-1-methyl-1H-pyrrolo[3,2-b]pyridin-5-yl)ethyl)amino)pyrimidine-5-carbonitrile] |
| 2 | C[C@H](Nc1nc(N)nc(N)c1C#N)c1nc2ccn(C)c2cc1N1CC(F)(F)C1 [Example 44, (S)-2,4-Diamino-6-((1-(6-(3,3-difluoroazetidin-1-yl)-1-methyl-1H-pyrrolo[3,2-b]pyridin-5-yl)ethyl)amino)pyrimidine-5-carbonitrile] |
| 200 | C[C@@H](Nc1nc(N)nc(N)c1C#N)c1nc2ccn(C)c2cc1N1CC2(COC2)C1 [Example 46, (R)-2,4-Diamino-6-((1-(1-methyl-6-(2-oxa-6-azaspiro[3.3]heptan-6-yl)-1H-pyrrolo[3,2-b]pyridin-5-yl)ethyl)amino)pyrimidine-5-carbonitrile] |
| 15.8 | C[C@H](Nc1nc(N)nc(N)c1C#N)c1nc2ccn(C)c2cc1N1CC2(COC2)C1 [Example 47, (S)-2,4-Diamino-6-((1-(1-methyl-6-(2-oxa-6-azaspiro[3.3]heptan-6-yl)-1H-pyrrolo[3,2-b]pyridin-5-yl)ethyl)amino)pyrimidine-5-carbonitrile] |
| 79.4 | C[C@@H](Nc1nc(N)nc(N)c1C#N)c1nc2ccn(C)c2cc1N1CCOCC1 [Example 48, (R)-2,4-Diamino-6-((1-(1-methyl-6-morpholino-1H-pyrrolo[3,2-b]pyridin-5-yl)ethyl)amino)pyrimidine-5-carbonitrile] |
| 251 | C[C@H](Nc1nc(N)nc(N)c1C#N)c1nc2c(O)cn(C)c2cc1N1CCOCC1 [Example 49, (S)-2,4-Diamino-6-((1-(3-hydroxy-1-methyl-6-morpholino-1H-pyrrolo[3,2-b]pyridin-5-yl)ethyl)amino)pyrimidine-5-carbonitrile] |
